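Growth conditions: 96-well plates. Treatment: test compound, 48 hours, 5 concentrations. Analysis: linear interpolation between bracketing concentrations; unreached endpoints set to highest concentration. Definition used: TGI = concentration required for complete inhibition of growth.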
System: P388 leukemia
Assay: NCI tumour cell line growth inhibition, 48 h

Compound | TGI [µM]
CC1CCC(NC(=O)N(CCCl)N=O)CC1 (configuration not stated) | 55.8
COc1cc(C[C@H]2c3cc(OC)c(OC)cc3CCN2C)c(Oc2cc3c(cc2OC)-c2c(OC)c(OC)cc4c2[C@H](C3)N(C)CC4)cc1OC | 22

From PubChem BioAssay (NCI)
